{"source": "paper PMC9609356", "about": "“Novel O-Methylglucoside Derivatives of Flavanone in Interaction with Model Membrane and Transferrin” (Membranes, 2022)", "test_in_all_cases": "intrinsic tryptophan fluorescence quenching titration (static quenching; Ka, n = […])", "assay_type_in_all_cases": "binding", "details_in_all_cases": "read-out: Ka (M^-1) × 10^4 (converted)", "key": {"[1]": {"target": "T1, human holo-transferrin (HTF) (Homo sapiens, UniProt P02787)", "T1 construct": "gene TF", "T1 sequence (P02787 20-698)": "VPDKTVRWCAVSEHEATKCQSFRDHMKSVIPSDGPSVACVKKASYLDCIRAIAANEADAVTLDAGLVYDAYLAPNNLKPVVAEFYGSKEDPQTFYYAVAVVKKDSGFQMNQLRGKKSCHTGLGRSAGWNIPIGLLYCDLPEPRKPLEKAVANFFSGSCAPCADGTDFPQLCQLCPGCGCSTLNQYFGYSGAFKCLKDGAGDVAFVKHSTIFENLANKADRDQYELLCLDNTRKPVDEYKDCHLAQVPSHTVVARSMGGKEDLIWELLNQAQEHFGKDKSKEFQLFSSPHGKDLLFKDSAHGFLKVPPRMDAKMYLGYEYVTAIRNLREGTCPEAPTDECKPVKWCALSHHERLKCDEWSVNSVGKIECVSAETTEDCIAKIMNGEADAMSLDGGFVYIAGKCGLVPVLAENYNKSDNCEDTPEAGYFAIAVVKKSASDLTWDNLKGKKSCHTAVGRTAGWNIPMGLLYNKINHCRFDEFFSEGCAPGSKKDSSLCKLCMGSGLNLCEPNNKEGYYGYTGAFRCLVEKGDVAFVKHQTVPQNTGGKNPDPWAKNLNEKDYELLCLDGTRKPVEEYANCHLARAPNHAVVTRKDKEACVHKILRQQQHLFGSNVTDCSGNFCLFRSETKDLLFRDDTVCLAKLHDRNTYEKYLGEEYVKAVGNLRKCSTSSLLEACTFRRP"}, "[2]": {"target": "T1, human holo-transferrin (HTF)", "remark": "listed apart in the source"}, "[3]": {"target": "T1, human holo-transferrin (HTF)", "remark": "listed apart in the source"}}, "note": "Like-named read-outs stand apart in the source and are kept apart here.", "data": [{"smiles": "CO[C@H]1[C@H](O)[C@@H](O)[C@H](Oc2cc(C3CC(=O)c4cc(C)ccc4O3)ccc2O)O[C@@H]1CO", "note": "(stereo partly drawn) [MFA, 4′-hydroxy-6-methylflavanone 3′-O-β-D-(4′’-O-methyl)-glucopyranoside]", "values": [{"measurement": "Kd", "setting": "[1]", "value": 89.3, "unit": "µM"}]}, {"smiles": "CO[C@H]1[C@H](O)[C@@H](O)[C@H](Oc2cc(C3CC(=O)c4cc(CO)ccc4O3)ccc2O)O[C@@H]1CO", "note": "(stereo partly drawn) [MFB, 4′-hydroxy-6-hydroxymethylflavanone 3′-O-β-D-(4′’-O-methyl)-glucopyranoside]", "values": [{"measurement": "Kd", "setting": "[2]", "value": 68, "unit": "µM"}]}, {"smiles": "CO[C@H]1[C@H](O)[C@@H](O)[C@H](OCc2ccc3c(c2)C(=O)CC(c2ccc(O)cc2)O3)O[C@@H]1CO", "note": "(stereo partly drawn) [MFC, 4′-hydroxyflavanone 6-methylene-O-β-D-(4′’-O-methyl)-glucopyranoside]", "values": [{"measurement": "Kd", "setting": "[3]", "value": 35.8, "unit": "µM"}]}]}
